Data reported in patent US4181729A, “Phenyl or phenoxy substituted spiro-imidazolidinedione derivatives” (Pfizer Inc., priority 1979, dated 1980).

Tests used:
aldose reductase = molecular target: T1, aldose reductase (Bos taurus, UniProt P16116); assay: Aldose reductase inhibitory activity; assay type: biochemical, calf lens (partially purified enzyme); conditions: partially purified aldose reductase from calf lens; read-out: 50% Inhibitory Concentration
T1 construct: partially purified aldose reductase enzyme obtained from calf lens; from tissue; host or cells: calf lens
Method: The derivatives prepared in Examples 1-6 were tested for their ability to reduce or inhibit aldose reductase enzyme activity, following the procedure described in U.S. Pat. No. 3,821,383 and based on the procedure of Hayman et. al., Journal of Biological Chemistry, 240, 877 (1965). The substrate employed was partially purified aldose reductase enzyme obtained from calf lens. The drug was tested to determine the concentration that would cause 50 percent inhibition of enzyme activity.

[1] = test system: sorbitol accumulation in the sciatic nerve; assay: Inhibition of sorbitol accumulation in the sciatic nerve of streptozotocinized (diabetic) rats; assay type: in vivo; conditions: oral at 4, 8 and 24 h after streptozotocin, rat sciatic nerve, 27 h after induction of diabetes
Method: Some of the Examples of derivatives prepared above were also tested for their ability to reduce or inhibit sorbitol accumulation in the sciatic nerve of streptozotocinized (i.e., diabetic) rats essentially by the procedure described in U.S. Pat. No. 3,821,383. In the present study, the amount of sorbitol accumulation in the sciatic nerves was measured 27 hours after induction of diabetes. The compounds were administered orally at the dose level indicated at 4, 8 and 24 hours following the administration of streptozotocin. The results obtained in this manner are presented in terms of percent inhibition (%) afforded by the test compound compared to the control where no compound was administered (i.e., the untreated animal where sorbitol levels normally rise from approximately […] tissue to as high as […] tissue in the 27-hour test period).

Question: O=C1NC(=O)C2(CCC(c3ccccc3)c3ccccc32)N1 (stereo not shown) [Example 2, 1',2',3',4'-tetrahydro-1'-phenyl-spiro[imidazolidine-4,4'-naphthalene]-2,5-dione] was tested. Which IC50 (aldose reductase) did it give?
Answer: 100 µM

Question: What about the “% Inhibition (sorbitol accumulation)” value ([1]; 25 mg./kg. t.i.d.) of the same molecule?
Answer: 27%

Question: What does the source list for O=C1NC(=O)C2(N1)c1ccccc1CCC2c1ccccc1 (stereo not shown) [Example 1, 1',2',3',4'-tetrahydro-3'-phenyl-spiro[imidazolidine-4,4'-naphthalene]-2,5-dione]?
Answer: IC50 (aldose reductase): > 100 µM; % Inhibition (sorbitol accumulation) ([1]; 25 mg./kg. t.i.d.): 18%

Question: Which results are given for O=C1NC(=O)C2(CCOc3ccc(Oc4ccccc4)cc32)N1 (stereo not shown) [Example 5, 6'-phenoxy-spiro[imidazolidine-4,4'-chroman]-2,5-dione]?
Answer: IC50 (aldose reductase): 10 µM; % Inhibition (sorbitol accumulation) ([1]; 1.5 mg./kg. t.i.d.): 0%

Question: For O=C1NC(=O)C2(CCOc3c(-c4ccccc4)cccc32)N1 (stereo not shown) [Example 4, 8'-phenyl-spiro[imidazolidine-4,4'-chroman]-2,5-dione], which IC50 (aldose reductase) is on record?
Answer: 1 µM

Question: What about the “% Inhibition (sorbitol accumulation)” value ([1]; 10 mg./kg. t.i.d.) of the same molecule?
Answer: 54%

Question: O=C1NC(=O)C2(CCOc3ccc(-c4ccccc4)cc32)N1 (stereo not shown) [Example 3, 6'-phenyl-spiro[imidazolidine-4,4'-chroman]-2,5-dione] was tested. Which “% Inhibition (sorbitol accumulation)” value ([1]; 1.5 mg./kg. t.i.d.) did it give?
Answer: 0%

Question: For O=C1NC(=O)C2(CCOc3c(Cl)cc(-c4ccccc4)cc32)N1 (stereo not shown) [Example 6, 8'-chloro-6'-phenyl-spiro[imidazolidine-4,4'-chroman]-2,5-dione], which IC50 (aldose reductase) is on record?
Answer: 10 µM
